In patent US9346815B2, “5-chloro-2-difluoromethoxyphenyl pyrazolopyrimidine compounds, compositions and methods of use thereof” (Genentech, Inc., priority 2014, dated 2016):

Tests used:
[1] = biological target: isolated recombinant JAK2 kinase domain (Homo sapiens (Human), UniProt O60674); assay: JAK2 enzyme assay (Caliper LabChip, peptide phosphorylation); format: biochemical; conditions: 25 μM ATP
[2] = tested on: JAK1-dependent STAT6 phosphorylation downstream of IL-13 stimulation in BEAS-2B human bronchial epithelial cells; assay: JAK1 pathway assay in BEAS-2B cells (IL-13-pSTAT6, MSD); format: cell-based; conditions: read-out: IL13-pSTAT6 EC50 (uM)_BEAS-2B
Summary of the method: (§1)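 TF-1 cells starved of GM-CSF overnight, assayed serum-free; BEAS-2B cells in complete growth medium. Lysate pSTAT6 measured by MSD; EC50 derived.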

[3] = biological target: isolated recombinant JAK1 kinase domain (Homo sapiens (Human), UniProt P23458); assay: JAK1 enzyme assay (Caliper LabChip, peptide phosphorylation); format: biochemical; conditions: isolated recombinant JAK1 kinase domain, 25 μM ATP
[4] = tested on: JAK1-dependent STAT6 phosphorylation downstream of IL-13 stimulation in TF-1 human erythroleukemia cells; assay: JAK1 pathway assay in TF-1 cells (IL-13-pSTAT6, MSD); format: cell-based; conditions: Homo sapiens, TF-1, TF-1 cells, read-out: IL13-pSTAT6 EC50_TF-1
Summary of the method: as §1

Chain of isolated recombinant JAK2 kinase domain (O60674 849-1124): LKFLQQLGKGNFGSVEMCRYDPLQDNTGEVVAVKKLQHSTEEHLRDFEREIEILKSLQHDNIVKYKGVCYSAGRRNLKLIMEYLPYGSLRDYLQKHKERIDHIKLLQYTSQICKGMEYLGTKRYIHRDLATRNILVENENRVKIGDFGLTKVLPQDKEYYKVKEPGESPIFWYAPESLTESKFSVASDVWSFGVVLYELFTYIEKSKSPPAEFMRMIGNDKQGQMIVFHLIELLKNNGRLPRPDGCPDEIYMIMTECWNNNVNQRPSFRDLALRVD
Chain of isolated recombinant JAK1 kinase domain (P23458 875-1153): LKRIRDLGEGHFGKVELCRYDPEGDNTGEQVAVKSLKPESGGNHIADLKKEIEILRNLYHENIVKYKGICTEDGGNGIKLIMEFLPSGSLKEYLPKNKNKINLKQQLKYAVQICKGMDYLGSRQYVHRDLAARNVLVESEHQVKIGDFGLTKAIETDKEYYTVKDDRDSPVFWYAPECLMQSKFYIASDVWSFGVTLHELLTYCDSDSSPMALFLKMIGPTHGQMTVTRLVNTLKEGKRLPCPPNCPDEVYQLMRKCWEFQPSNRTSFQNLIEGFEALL

| SMILES | Ki [1] | EC50 [2] | Ki [3] | EC50 [4] |
| --- | --- | --- | --- | --- |
| O=C(Nc1cn(CC(=O)N2C[C@H]3CN(CC4CCCCC4)C[C@H]3C2)nc1-c1cc(Cl)ccc1OC(F)F)c1cnn2cccnc12 [Example 52, N-[1-[2-[(3aR,6aS)-2-(cyclohexylmethyl)-1,3,3a,4,6,6a-hexahydropyrrolo[3,4-c]pyrrol-5-yl]-2-oxo-ethyl]-3-[5-chloro-2-(difluoromethoxy)phenyl]pyrazol-4-yl]pyrazolo[1,5-a]pyrimidine-3-carboxamide] | 0.62 nM | 0.0388 µM | 0.65 nM | 5.4 nM |
| O=C(Nc1cn(CC(=O)N2CCOCC2)nc1-c1cc(Cl)ccc1OC(F)F)c1cnn2cccnc12 [Example 288, N-[3-[5-chloro-2-(difluoromethoxy)phenyl]-1-(2-morpholino-2-oxo-ethyl)pyrazol-4-yl]pyrazolo[1,5-a]pyrimidine-3-carboxamide] | 1.11 nM | 0.0363 µM | 0.58 nM | 2.8 nM |
| CCN(Cc1ccnc(Cl)c1)C(=O)Cn1cc(NC(=O)c2cnn3cccnc23)c(-c2cc(Cl)ccc2OC(F)F)n1 [Example 300, N-[3-[5-chloro-2-(difluoromethoxy)phenyl]-1-[2-[(2-chloro-4-pyridyl)methyl-ethyl-amino]-2-oxo-ethyl]pyrazol-4-yl]pyrazolo[1,5-a]pyrimidine-3-carboxamide] | 0.18 nM | 0.0142 µM | 0.28 nM | 4 nM |
| CC(C)CN1CCC2(CCN(C(=O)Cn3cc(NC(=O)c4cnn5cccnc45)c(-c4cc(Cl)ccc4OC(F)F)n3)CC2)C1 [Example 225, N-[3-[5-chloro-2-(difluoromethoxy)phenyl]-1-[2-(2-isobutyl-2,8-diazaspiro[4.5]decan-8-yl)-2-oxo-ethyl]pyrazol-4-yl]pyrazolo[1,5-a]pyrimidine-3-carboxamide] | 1.29 nM | 0.0423 µM | 0.39 nM | 5 nM |
| N#CCCNC1CCN(C(=O)Cn2cc(NC(=O)c3cnn4cccnc34)c(-c3cc(Cl)ccc3OC(F)F)n2)CC1 [Example 87, N-[3-[5-chloro-2-(difluoromethoxy)phenyl]-1-[2-[4-(2-cyanoethylamino)-1-piperidyl]-2-oxo-ethyl]pyrazol-4-yl]pyrazolo[1,5-a]pyrimidine-3-carboxamide] | 0.73 nM | 0.014 µM | 0.4 nM | 15.4 nM |
| O=C(Nc1cn(CC(=O)N2C[C@H]3CN(CC4CCC(F)(F)CC4)C[C@H]3C2)nc1-c1cc(Cl)ccc1OC(F)F)c1cnn2cccnc12 [Example 33, N-[1-[2-[(3aR,6aS)-2-[(4,4-difluoro-cyclohexyl)methyl]-1,3,3a,4,6,6a-hexahydropyrrolo[3,4-c]pyrrol-5-yl]-2-oxo-ethyl]-3-[5-chloro-2-(difluoromethoxy)phenyl]pyrazol-4-yl]pyrazolo[1,5-a]pyrimidine-3-carboxamide] | 0.49 nM | 0.0485 µM | 0.66 nM | 6.2 nM |
| CN1CC[C@H]2[C@@H](CCN2C(=O)Cn2cc(NC(=O)c3cnn4cccnc34)c(-c3cc(Cl)ccc3OC(F)F)n2)C1 [Example 62, N-[1-[2-[(3aS,7aS)-5-methyl-3,3a,4,6,7,7a-hexahydro-2H-pyrrolo[3,2-c]pyridin-1-yl]-2-oxo-ethyl]-3-[5-chloro-2-(difluoromethoxy)phenyl]pyrazol-4-yl]pyrazolo[1,5-a]pyrimidine-3-carboxamide] | 2.68 nM | 0.0892 µM | 2.07 nM | 55.8 nM |
| N=C(N)CCCn1cc(NC(=O)c2cnn3cccnc23)c(-c2cc(Cl)ccc2OC(F)F)n1 [Example 305, N-[1-(4-amino-4-imino-butyl)-3-[5-chloro-2-(difluoromethoxy)phenyl]pyrazol-4-yl]pyrazolo[1,5-a]pyrimidine-3-carboxamide] | 0.32 nM | 0.0426 µM | 0.61 nM | 10.9 nM |
| O=C(Nc1cn(CC2(O)CCCC2)nc1-c1cc(Cl)ccc1OC(F)F)c1cnn2cccnc12 [Example 292, N-[3-[5-chloro-2-(difluoromethoxy)phenyl]-1-[(1-hydroxy-cyclopentyl)methyl]pyrazol-4-yl]pyrazolo[1,5-a]pyrimidine-3-carboxamide] | 0.4 nM | 0.021 µM | 0.39 nM | 1.4 nM |
| O=C(Nc1cn(CC(=O)N2CCN(CCO)CC2)nc1-c1cc(Cl)ccc1OC(F)F)c1cnn2cccnc12 [Example 228, N-[3-[5-chloro-2-(difluoromethoxy)phenyl]-1-[2-[4-(2-hydroxyethyl)piperazin-1-yl]-2-oxo-ethyl]pyrazol-4-yl]pyrazolo[1,5-a]pyrimidine-3-carboxamide] | 0.89 nM | 0.0655 µM | 0.47 nM | 11.1 nM |
| NCCn1cc(NC(=O)c2c(N)nn3cccnc23)c(-c2cc(Cl)ccc2OC(F)F)n1 [Example 295, 2-amino-N-[1-(2-aminoethyl)-3-[5-chloro-2-(difluoromethoxy)phenyl]pyrazol-4-yl]pyrazolo[1,5-a]pyrimidine-3-carboxamide] | 0.21 nM | 0.0345 µM | 0.49 nM | 5.5 nM |
| CN(CCCc1ccccc1)C1CCN(C(=O)Cn2cc(NC(=O)c3cnn4cccnc34)c(-c3cc(Cl)ccc3OC(F)F)n2)CC1 [Example 123, N-[3-[5-chloro-2-(difluoromethoxy)phenyl]-1-[2-[4-[methyl(3-phenylpropyl)amino]-1-piperidyl]-2-oxo-ethyl]pyrazol-4-yl]pyrazolo[1,5-a]pyrimidine-3-carboxamide] | 1.63 nM | 0.0487 µM | 2.23 nM | 7.6 nM |
| CN[C@H]1C[C@@H](n2cc(NC(=O)c3c(N)nn4cccnc34)c(-c3cc(Cl)ccc3OC(F)F)n2)C1 [Example 298, 2-amino-N-[3-[5-chloro-2-(difluoromethoxy)phenyl]-1-[3-(methylamino)cyclobutyl]pyrazol-4-yl]pyrazolo[1,5-a]pyrimidine-3-carboxamide] | 0.18 nM | 0.0215 µM | 0.52 nM | 4.4 nM |
| CCOC(=O)CNCCn1cc(NC(=O)c2cnn3cccnc23)c(-c2cc(Cl)ccc2OC(F)F)n1 [Example 306, Ethyl 2-[(2-[3-[5-chloro-2-(difluoromethoxy)phenyl]-4-[pyrazolo[1,5-a]pyrimidine-3-amido]-1H-pyrazol-1-yl]ethyl)amino]acetate] | 0.54 nM | 0.0659 µM | 1.15 nM | 6.2 nM |
| O=C(Cn1cc(NC(=O)c2cnn3cccnc23)c(-c2cc(Cl)ccc2OC(F)F)n1)NCC1(CO)CC1 [Example 291, N-[3-[5-chloro-2-(difluoromethoxy)phenyl]-1-[2-[[1-(hydroxy-methyl)cyclopropyl]methylamino]-2-oxo-ethyl]pyrazol-4-yl]pyrazolo[1,5-a]pyrimidine-3-carboxamide] | 0.55 nM | 0.0317 µM | 0.54 nM | 3.6 nM |
| CN(C(=O)Cn1cc(NC(=O)c2cnn3cccnc23)c(-c2cc(Cl)ccc2OC(F)F)n1)C1(CO)CC1 [Example 293] | 0.38 nM | 0.0081 µM | 0.29 nM | 3 nM |
